# Results as given in article PMC9258321, “Structure-guided design of CPPC-paired disulfide-rich peptide libraries for ligand and drug discovery” (Chemical Science, 2022).
# Bridge positions count the residues as written; N and C are the ends. Peptide text beside a SMILES is read from it. * marks the point of attachment. FITC = O=C1OC2(c3ccc(O)cc3Oc3cc(O)ccc32)c2ccc(NC(=S)*)cc21; βAla = NCCC(=O)O
# Legend:
# [1] = tested on: CD28 expressed on the surface of HEK293T cells; experiment: Laser confocal cell imaging, labeling CD28 on HEK293T cells; assay type: cell-based; settings: HEK293T cells transfected with mCherry-CD28 vs mCherry control; 1 μM peptide in DMEM, 30 min, washed; confocal colocalization
# Description: Finally, we examined the specific binding capability of drp8 to CD28 expressed on the surface of the cells. HEK293T cells transfected with a plasmid expressing the extracellular domain of CD28 fused with an extracellular-targeting signaling sequence, a fluorescent mCherry tag, and a transmembrane domain was constructed for the experiments. Briefly, the transfected cells were incubated with the fluorescein-labeled drp8 for 30 min, followed by washing with culture media to remove the unbound peptide. Confocal fluorescence images were then recorded (Fig. 5d), showing the colocalization of fluorescence from the mCherry tag and the labeled peptide.
# Surface plasmon resonance (SPR) assay
# The affinity of peptides to Keap1 was measured using Biacore T200 (GE healthcare) at 25℃. […]
# NMR samples were dissolved in 80% perdeuterated acetonitrile and 20% H2O for drp1, 75% perdeu-terated acetonitrile and […] for drp2-a, 60% perdeuterated acetonitrile and 40% H2O for drp8, 50% perdeuterated acetonitrile and 50% H2O for drp3 and drp6, 40% perdeuterated acetonitrile and 60% H2O for drp2-b and drp4 (The solution conditions depend on the dispersion of cross -peaks). […] Two dimensional (2D) 1H, 15N/13C HSQC spectra were recorded to obtain chemical shifts of heavy atoms in backbone and side-chains. […]
# CD28 [2] = target: T1, CD28 (Homo sapiens, UniProt P10747); experiment: FP assay: CD80 added to premixed oxidized FITC-drp8 and CD28; assay type: binding; settings: CD80 50-500 nM added to 25 nM oxidized FITC-drp8 and 100 nM CD28, PBS pH 7.4, 20 min room temperature, Fig. S22
# T1 construct: purchased Sino Biological 11524-HCCH
# Description: (§1) min incubation at room temperature, the fluorescence anisotropies were measured using a plate reader (Eex= 485 nm, Eem=535 nm). All of the measurements were recorded in triplicate. In the fluorescence polarization assay s measuring the binding of reduced FITC-drp8 to CD28 and the binding of oxidized FITC-drp8 to CTLA-4, the fluorescence anisotrop ies were recorded in the same way as described above.
# (§2) Dissociation constants ( KD) were determined by nonlinear regression analysis of anisotrop ies versus the concentrations of the protein using the following equation: […]
# (§3) Y = A1 + (A2 − A1) × { 2×C } (1)
# (§4) X: the concentration of protein, Y: the measured fluorescence anisotropy, C: the concentration of fluores-cent peptide, A1: the bottom plateaus of anisotropy, A2: the anisotropy signal in the presence of saturating concentrations of CD28, KD: the dissociation constant.
# (§5) (b) Competition fluorescence polarization assay. The binding of drp8 to CD28 was measured by adding dilutions of drp8 to premixed oxidized FITC-drp8 and CD28 in PBS (pH 7.4). […] After 10 min incubation at room temperature, the plate was read using a plate reader (Eex= 485 nm, Eem = 535 nm). In the competition fluorescence polarization assay measuring the binding of drp1, drp7 and drp9 to CD28, the fluorescence anisotropies were recorded in the same way as described above. […]
# CTLA-4 = experiment: Fluorescence polarization binding assay to CTLA-4; settings: FP assay, oxidized fluorescein-labeled peptide; Fig. S23
# Description: as §1, §2, §3, §4, §5
# CD28 [3] = target: T1, CD28; experiment: Competition fluorescence polarization assay with oxidized FITC-drp8 as probe; assay type: binding; settings: FP competition with oxidized FITC-drp8; negative control
# Description: as §1, §2, §3, §4, §5
# T1 sequence (P10747 19-220): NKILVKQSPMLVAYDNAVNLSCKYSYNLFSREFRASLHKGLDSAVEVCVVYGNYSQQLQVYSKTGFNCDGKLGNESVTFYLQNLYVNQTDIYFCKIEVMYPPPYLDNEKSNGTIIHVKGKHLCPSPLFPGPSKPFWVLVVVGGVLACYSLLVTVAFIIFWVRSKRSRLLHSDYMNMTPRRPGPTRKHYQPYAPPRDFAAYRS
compound,measurement,setting,value
"CC(C)C[C@@H]1NC(=O)CNC(=O)[C@H](CCC(=O)O)NC(=O)[C@@H]2CSSC[C@H](NC(=O)[C@H](CC(N)=O)NC(=O)[C@H](CC(N)=O)NC1=O)C(=O)N[C@@H](Cc1c[nH]c3ccccc13)C(=O)N[C@@H](Cc1ccccc1)C(=O)N[C@@H](C(C)C)C(=O)N[C@@H](CCC(=O)O)C(=O)N[C@@H](C)C(=O)N[C@H]1CSSC[C@H](NC(=O)CNC(=O)CCNC(=S)Nc3ccc4c(c3)C(=O)OC43c4ccc(O)cc4Oc4cc(O)ccc43)C(=O)N3CCC[C@H]3C(=O)N3CCC[C@H]3C(=O)N[C@@H](CSSC[C@@H](C(N)=O)NC(=O)[C@@H]3CCCN3C(=O)[C@@H]3CCCN3C1=O)C(=O)N1CCC[C@H]1C(=O)N[C@@H](CCCNC(=N)N)C(=O)N[C@@H](CCC(=O)O)C(=O)N[C@@H](Cc1c[nH]cn1)C(=O)N[C@@H](CCC(=O)O)C(=O)N[C@@H](CC(C)C)C(=O)N[C@@H](C(C)C)C(=O)N[C@@H](C)C(=O)N[C@@H](C(C)C)C(=O)N1CCC[C@H]1C(=O)N2 [FITC-drp8] ({FITC-βAla}-GCPPCPREHELVAVPCEGLNNCWFVEACPPC-NH2; disulfide 2-28, 5-31, 16-22)",binding to CD28 on the cell surface (in words),[1],can specifically bind with CD28 on the live cell surface
"CC(C)C[C@@H]1NC(=O)CNC(=O)[C@H](CCC(=O)O)NC(=O)[C@@H]2CSSC[C@H](NC(=O)[C@H](CC(N)=O)NC(=O)[C@H](CC(N)=O)NC1=O)C(=O)N[C@@H](Cc1c[nH]c3ccccc13)C(=O)N[C@@H](Cc1ccccc1)C(=O)N[C@@H](C(C)C)C(=O)N[C@@H](CCC(=O)O)C(=O)N[C@@H](C)C(=O)N[C@H]1CSSC[C@H](NC(=O)CN)C(=O)N3CCC[C@H]3C(=O)N3CCC[C@H]3C(=O)N[C@@H](CSSC[C@@H](C(N)=O)NC(=O)[C@@H]3CCCN3C(=O)[C@@H]3CCCN3C1=O)C(=O)N1CCC[C@H]1C(=O)N[C@@H](CCCNC(=N)N)C(=O)N[C@@H](CCC(=O)O)C(=O)N[C@@H](Cc1c[nH]cn1)C(=O)N[C@@H](CCC(=O)O)C(=O)N[C@@H](CC(C)C)C(=O)N[C@@H](C(C)C)C(=O)N[C@@H](C)C(=O)N[C@@H](C(C)C)C(=O)N1CCC[C@H]1C(=O)N2 [drp8] (H-GCPPCPREHELVAVPCEGLNNCWFVEACPPC-NH2; disulfide 2-28, 5-31, 16-22)",competition with CD80 for CD28 (in words),CD28 [2],capable of blocking the CD80 and CD28 interaction
same,binding affinity to CTLA4 (in words),CTLA-4,negligible binding affinity
"H-CPPCHGRPTCDSFTNCWELLTCPPC-NH2 (also: bicyclic or more (positions not given here)) [drp1, template and negative control for CD28]",binding to CD28 in competition assay (in words),CD28 [3],negligibly binds with CD28
